Key:
[1] = tested on: BT-20; assay: Effect on proliferation of human breast cancer cell line BT-20 by MTT assay method; format: functional, cell-based
[2] = tested on: Candida albicans; assay: In vitro growth inhibitory concentration for antifungal activity against Candida albicans; format: functional
[3] = tested on: NALM-6; assay: Effect on proliferation of human B-lineage acute lymphoblastic leukemia cell line NALM-6 by MTT assay method; format: functional, cell-based
[4] = tested on: Saccharomyces pastorianus; assay: In vitro growth inhibitory concentration for antifungal activity against Saccharomyces carlsbergensis; format: functional
[5] = tested on: U373 MG; assay: Effect on proliferation of human brain tumor (glioblastoma) cell line U373 by MTT assay method; format: functional, cell-based, U-373MG ATCC
[6] = tested on: BT-20; assay: In vitro anticlonogenic effect on human breast cancer cell line BT-20 at 10 nM concentration; format: functional
[7] = tested on: BT-20; assay: In vitro anticlonogenic effect on human breast cancer cell line BT-20 at 1 nM concentration; format: functional
[8] = tested on: BT-20; assay: In vitro anticlonogenic effect on human breast cancer cell line BT-20 at 100 nM concentration; format: functional
[9] = tested on: NALM-6; assay: In vitro anticlonogenic effect on human B-lineage acute lymphoblastic leukemia cell line NALM-6 at 10 nM concentration; format: functional
[10] = tested on: NALM-6; assay: In vitro anticlonogenic effect on human B-lineage acute lymphoblastic leukemia cell line NALM-6 at 100 nM concentration; format: functional
[11] = tested on: NALM-6; assay: In vitro anticlonogenic effect on human B-lineage acute lymphoblastic leukemia cell line NALM-6 at 1 nM concentration; format: functional
[12] = tested on: U373 MG; assay: In vitro anticlonogenic effect on human brain tumor (glioblastoma) cell line U373 at 100 nM concentration; format: functional, U-373MG ATCC
[13] = tested on: U373 MG; assay: In vitro anticlonogenic effect on human brain tumor (glioblastoma) cell line U373 at 10 nM concentration; format: functional, U-373MG ATCC
[14] = tested on: BT-20; assay: In vitro anticlonogenic effect on human breast cancer cell line BT-20 100 nM concentration; format: functional
[15] = tested on: BT-20; assay: In vitro anticlonogenic effect on human breast cancer cell line BT-20 10 nM concentration; format: functional
[16] = tested on: BT-20; assay: In vitro anticlonogenic effect on human breast cancer cell line BT-20 1 nM concentration; format: functional
[17] = tested on: Saccharomyces pastorianus; assay: In vitro growth inhibitory concentration against Saccharomyces carlsbergensis; format: functional
[18] = tested on: U373 MG; assay: In vitro anticlonogenic effect on human brain tumor (glioblastoma) cell line U373 10 nM concentration e; format: functional, U-373MG ATCC
[19] = tested on: Candida albicans; assay: In vitro growth inhibitory concentration against Candida albicans; format: functional
[20] = tested on: U373 MG; assay: In vitro anticlonogenic effect on human brain tumor (glioblastoma) cell line U373 100 nM concentration; format: functional, U-373MG ATCC
[21] = tested on: BT-20; assay: In vitro anticlonogenic effect on human breast cancer cell line BT-20 at 10 nM concentration,; format: functional

SMILES | IC50 [1] | GI50 [2] | IC50 [3] | GI50 [4] | IC50 [5] | Mean no. colonies [9] | Mean no. colonies [10] | Mean no. colonies [11] | also measured
COC(=O)/C=C/C[C@H]1O[C@@H](/C(C)=C/c2coc(C[C@]3(O)C[C@H](OC)C[C@H]([C@H](O)/C=C(C)/C=C/[C@@H](C/C=C/Br)OC)O3)n2)[C@H](C)[C@@H](OC(C)=O)[C@H]1C | > 2000 nM | 1.6 nM | > 2000 nM | 1.6 nM | > 2000 nM | – | – | – | –
C=C1C[C@@H]2C[C@@H]3C[C@@H](O)C[C@@H](O3)c3coc(n3)/C=C/C[C@H]3O[C@@H](/C(C)=C/c4coc(C[C@]5(O)C[C@H](OC)C[C@H](CO)O5)n4)[C@H](C)[C@@H](OC(=O)/C=C\C[C@@H](C1)O2)[C@H]3C | > 2000 nM | 1.6 nM | > 2000 nM | 1.6 nM | > 2000 nM | – | – | – | –
C=C1C[C@@H]2C[C@@H]3C[C@@H](O)C[C@@H](O3)c3coc(n3)/C=C/C[C@H]3O[C@@H](/C(C)=C/[C@H](CO)NC(=O)C[C@]4(O)C[C@H](OC)C[C@H]([C@H](O)/C=C(C)/C=C/[C@@H](C/C=C/Br)OC)O4)[C@H](C)[C@@H](OC(=O)/C=C\C[C@@H](C1)O2)[C@H]3C | > 2000 nM | 1.6 nM | > 2000 nM | 1.6 nM | > 2000 nM | – | – | – | –
C=C1C[C@@H]2C[C@@H]3C[C@@H](O)C[C@@H](O3)c3coc(n3)/C=C/C[C@H]3O[C@@H](/C(C)=C/c4coc(C[C@]5(OC)C[C@H](OC)C[C@H]([C@H](O)/C=C(C)/C=C/[C@@H](C/C=C/Br)OC)O5)n4)[C@H](C)[C@@H](OC(=O)/C=C\C[C@@H](C1)O2)[C@H]3C | 11.3 nM | 1.6 nM | 5.2 nM | 1.6 nM | 29.2 nM | 422 10e4*cells | 0 10e4*cells | 1760 10e4*cells | Mean no. colonies [6]: 1430 10e4*cells; Mean no. colonies [7]: 1824 10e4*cells; Mean no. colonies [8]: 0 10e4*cells; Mean no. colonies [12]: 0 10e4*cells; Mean no. colonies [13]: 578 10e4*cells
C#CC[C@H](/C=C/C(C)=C/[C@@H](O)[C@H]1C[C@@H](OC)C[C@@](O)(Cc2nc(/C=C(\C)[C@@H]3O[C@@H]4C/C=C/c5nc(co5)[C@H]5C[C@H](O)C[C@@H](C[C@H]6CC(=C)C[C@H](C/C=C\C(=O)O[C@@H]([C@H]4C)[C@H]3C)O6)O5)co2)O1)OC | 12.6 nM | – | 4.8 nM | – | 27.4 nM | 293 10e4*cells | 0 10e4*cells | 2116 10e4*cells | Mean no. colonies [14]: 0 10e4*cells; Mean no. colonies [15]: 1062 10e4*cells; Mean no. colonies [16]: 1540 10e4*cells; GI50 [17]: 1.6 nM; Mean no. colonies [18]: 586 10e4*cells; GI50 [19]: 1.6 nM; Mean no. colonies [20]: 144 10e4*cells
COC(=O)C[C@]1(O)C[C@H](OC)C[C@H]([C@H](O)/C=C(C)/C=C/[C@@H](C/C=C/Br)OC)O1 | > 2000 nM | 1.6 nM | > 2000 nM | 1.6 nM | > 2000 nM | – | – | – | –
C=C1C[C@@H]2C[C@@H]3C[C@@H](O)C[C@@H](O3)c3coc(n3)/C=C/C[C@H]3O[C@@H](/C(C)=C/c4coc(C[C@]5(O)C[C@H](OC)C[C@H]([C@H](O)/C=C(C)/C=C/[C@@H](C/C=C/Br)OC)O5)n4)[C@H](C)[C@@H](OC(=O)/C=C\C[C@@H](C1)O2)[C@H]3C | 3.4 nM | 1.6 nM | 1.7 nM | 1.6 nM | 6.7 nM | 0 10e4*cells | 0 10e4*cells | 270 10e4*cells | Mean no. colonies [6]: 0 10e4*cells; Mean no. colonies [7]: 1070 10e4*cells; inhibition at 0.01 µM [21]: > 99.9%; Mean no. colonies [8]: 0 10e4*cells; inhibition at 0.1 µM [8]: > 99.9%; inhibition at 0.01 µM [9]: > 99.9%; inhibition at 0.1 µM [10]: > 99.9%; Mean no. colonies [12]: 0 10e4*cells; inhibition at 0.1 µM [12]: > 99.9%; Mean no. colonies [13]: 378 10e4*cells
